Laboratory results as given in patent US5756491A, “Antiviral cobalt-organic compounds” (priority 1991, dated 1998).

Legend:
HSV-1 McKrae Strain [1] = assay: Direct virucidal efficacy against HSV-1 on HFF monolayers; type: cell-based; details: for effective virucidal concentration IC50 / effective virucidal concentration IC90: HSV-1
Procedure: (§1) HSV-1 McKrae Strain was diluted to a final concentration of 10^5 PFU/ml in minimal essential medium (MEM). Hereinafter, this dilution is referred to as the HSV-1 Suspension for convenience.
(§2) With sufficient stirring, all the compounds completely dissolved.
Each of the drug solutions were mixed with the HSV-1 Suspension in a 1:1 ratio. The drug and HSV-1 Suspension mixture was incubated at 37° C. for thirty minutes with agitation every ten minutes. After the incubation, fifty microliter aliquots were overlaid onto triplicate confluent human foreskin fibroblast (HFF) cell monolayers. The inoculum was absorbed for thirty minutes and then a medium containing the appropriate drug concentration in MEM was added to the monolayers to a final volume of 0.5 milliliters per culture-well. The monolayers were incubated at 37° C. The developing HSV-1 Cytopathology was monitored daily for two days by inverted light microscopy. Titers were calculated by multiple regression analysis. All data is presented as the average PFU/ml reduction at 24 and/or 48 hours after inoculation (PI).
1. HSV-1 inoculated, non-compound treated HFF monolayers were included as "positive controls"; and […]

RE strain HSV-1 = assay: HSV-1 recovery from tear film, cornea and trigeminal ganglia of treated rabbits; type: in vivo, NZW rabbit; details: Example 4
Text: The specified number of NZW rabbits (1.5-2.0 kg) were used. Animals were received at least two days prior to inoculation to allow them to accommodate to the conditions in the vivarium facility. This conditioning of the animals prior to inoculation minimizes animal variability. After the accommodation, the animals received a slit-lamp examination to exclude any animals with pre-existing anterior segment ocular defects. Animals were bi-laterally inoculated by intrastromal injection of 10^5 PFU RE strain HSV-1. The animals were then replaced individually into cages.
[…] This was carried out by obtaining tear film by swabbing the lower and upper conjunctival sacs and retaining the swab in the nasal fornix for 10 seconds. The swabs were eluted individually in HBSS. 50 μl aliquots of the virus-HBSS eluate were absorbed under confluent HFF cell monolayers for 5 minutes. The monolayers were hydrated with MEM, incubated at 37° C. and observed daily for 1 to 2 weeks to detect developing cytopathology consistent with HSV infection (HSV CPE).
(§3) On day 10 PI, the animals were sacrificed, the corneal epithelium was scraped from the eyes and epithelial and corneal stromal cultures were preformed on HFF cell monolayers. The separation of epithelial virus from deeper stromal virus infection allows for analysis of HSV in these distinct corneal layers. Corneal epithelial and stromal co-cultures were evaluated daily by inverted light microscopy.
At sacrifice, trigeminal ganglia were removed, washed in HBSS, minced and floated over duplicate HFF cell monolayers. The cell co-cultures were monitored by inverted light microscopy for 2 weeks. Negative cultures were blind passaged twice at 7 day intervals. Detection of HSV CPE in the whole-cell co-cultures was scored either positive or negative. HSV recovery from inventive compound-treated, TFT-treated and placebo-treated trigeminal ganglia was compared and differences in recovery rates analyzed.
as §3, with “7” for “10”, “performed” for “preformed”

HFF cells [2] = assay: MTT assay for cell cytotoxicity; type: cell-based, human; details: stationary cells
Procedure: Twenty-four hours prior to assay, HFF cells are plated into 96 well plates at a concentration of […] cells per well. After 24 h, the media is aspirated and […] of drug is added to the first row of wells and then diluted serially 1:5 using the automated Cetus Liquid Handling System in a manner similar to that used in the CPE assay. The plates are then incubated in a CO2 incubator at 37° C. for seven days. At this time, each well receives 50 microliters of […] solution of MTT in Dulbecco's Phosphate Buffered Saline. The plates are then incubated for an additional four hours. At this time, the media is removed and replaced with 100 μl of 0.04N hydrochloric acid in isopropanol. After shaking briefly, the plates are then read on a plate reader at 550 nm.

HFF cells [3] = assay: Cell proliferation assay; type: cell-based, human; details: rapidly growing cells
Procedure: Twenty-four hours prior to assay, HFF cells are seeded in 6-well plates at a concentration of 2.5×10^4 cells per well in MEM containing 10% FBS. On the day of the assay, drugs are diluted serially in MEM containing 10% FBS at increments of 1:5 covering a range from 100 μg/ml to 0.03 μg/ml. […] The media from the wells is then aspirated and 2 ml of each drug concentration is then added to each well. The cells are then incubated in a Co2 incubator at 37° C. for 72 h. At the end of this time, the media-drug solution is removed and the cells washed. […] The cell-media mixture is then pipetted up and down vigorously to break up the cell suspension and 0.2 ml of the mixture is added to 9.8 ml of Isoton III and counted using a Coulter Counter. Each sample is counted three times with three replicate wells per sample.

HSV-1 McKrae Strain [4] = assay: Intracellular antiviral activity against HSV-1 in HFF monolayers; type: cell-based; details: for antiviral efficacy (HSV-1 titer): Experiment 7 (Table 18), 24 h PI
Procedure: as §1, §2
HFF cell monolayers were inoculated with the HSV-Suspension prepared as above by absorption for thirty minutes at 37° C. After absorption of the virus, the inoculum was aspirated from the cell monolayers and the HSV-1 infected monolayers were rehydrated with medium containing the appropriate concentration of the solution of the compound by adding 500 microliters of each compound concentration to triplicate HSV-1 infected monolayers. All monolayers were incubated at 37° C. The developing HSV-1 cytopathology was monitored daily for two days by inverted light microscopy and titers were calculated by multiple […] analysis. For the intracellular anti-viral activity, "cell monolayer controls" were obtained using sham inoculated non-treated HFF cell monolayers along with the drug treated monolayers. "Positive controls" were obtained by using HSV-1 inoculated non-CTC compound treated HFF monolayers.

Compound: CC([O-])=CC(C)=NCCN=C(C)C=C(C)[O-].[Cl-].[Co+3].c1c[nH]cn1.c1c[nH]cn1 [Compound 82]
- virucidal efficacy (HSV-1 titer) (HSV-1 McKrae Strain [1]; Experiment 1 (Table 2), 24 h PI, 0.001 mg/ml): 10^5 PFU/ml
- virucidal efficacy (HSV-1 titer) (HSV-1 McKrae Strain [1]; Experiment 1 (Table 2), 24 h PI, 0.1 mg/ml): 10^2 PFU/ml
- virucidal efficacy (HSV-1 titer) (HSV-1 McKrae Strain [1]; Experiment 1 (Table 2), 24 h PI, 10 mg/ml): 0 PFU/ml
- virucidal efficacy (HSV-1 titer) (HSV-1 McKrae Strain [1]; Experiment 1 (Table 2), 24 h PI, .01 mg/ml): 10^4 PFU/ml
- virucidal efficacy (HSV-1 titer) (HSV-1 McKrae Strain [1]; Experiment 1 (Table 2), 48 h PI, 1 mg/ml): 10^5 PFU/ml
- virucidal efficacy (HSV-1 titer) (HSV-1 McKrae Strain [1]; Experiment 1 (Table 2), 48 h PI, 10 mg/ml): O/T
- effective virucidal concentration IC50 (HSV-1 McKrae Strain [1]; Experiment 1 (Table 3)): 100 µg/mL
- effective virucidal concentration IC90 (HSV-1 McKrae Strain [1]; Experiment 1 (Table 3)): 1000 µg/mL
- virucidal efficacy (IC50) compared with 23 and 76 (HSV-1 McKrae Strain [1]; Experiment 1 comment, less than that observed for 23 and 76): one order of magnitude less
- virucidal efficacy (HSV-1 titer) (HSV-1 McKrae Strain [1]; Experiment 2 (Table 5), 24 h PI, 0.001 mg/ml): 10^4 PFU/ml
- virucidal efficacy (HSV-1 titer) (HSV-1 McKrae Strain [1]; Experiment 2 (Table 5), 24 h PI, 0.1 mg/ml): 10^2 PFU/ml
- virucidal efficacy (HSV-1 titer) (HSV-1 McKrae Strain [1]; Experiment 2 (Table 5), 24 h PI, 10 mg/ml): 0 PFU/ml
- virucidal efficacy (HSV-1 titer) (HSV-1 McKrae Strain [1]; Experiment 2 (Table 5), 48 h PI, 1 mg/ml): 10^5 PFU/ml
- effective virucidal concentration IC50 (HSV-1 McKrae Strain [1]; Experiment 2 (Table 6)): 100 µg/mL
- effective virucidal concentration IC90 (HSV-1 McKrae Strain [1]; Experiment 2 (Table 6)): 1000 µg/mL
- recovery of HSV-1 in tear film (RE strain HSV-1): reduced the recovery of HSV-1 in tear film

Compound: CC(=NCCN=C(C)C(Cl)=C(C)[O-])C(Cl)=C(C)[O-].[Br-].[Co+3].c1c[nH]cn1.c1c[nH]cn1 [Compound 93]
- toxicity IC50, MTT toxicity (HFF cells [2]): 65.0 MCG/ML
- virucidal efficacy (HSV-1 titer) (HSV-1 McKrae Strain [1]; Experiment 4 (Table 9), 24 h PI, Run 1, 0.001 mg/ml): 10^5 PFU/ml
- virucidal efficacy (HSV-1 titer) (HSV-1 McKrae Strain [1]; Experiment 4 (Table 9), 24 h PI, Run 1, 0.5 mg/ml): 10^2 PFU/ml
- virucidal efficacy (HSV-1 titer) (HSV-1 McKrae Strain [1]; Experiment 4 (Table 9), 24 h PI, Run 1, 1 mg/ml): 0 PFU/ml
- virucidal efficacy (HSV-1 titer) (HSV-1 McKrae Strain [1]; Experiment 4 (Table 9), 24 h PI, Run 1, 5 mg/ml): 0 PFU/ml
- virucidal efficacy (HSV-1 titer) (HSV-1 McKrae Strain [1]; Experiment 4 (Table 9), 24 h PI, Run 2, 0.01 mg/ml): 10^2 PFU/ml
- virucidal efficacy (HSV-1 titer) (HSV-1 McKrae Strain [1]; Experiment 4 (Table 9), 24 h PI, Run 2, 0.1 mg/ml): 0 PFU/ml
- virucidal efficacy (HSV-1 titer) (HSV-1 McKrae Strain [1]; Experiment 4 (Table 9), 24 h PI, Run 2, 0.5 mg/ml): 0 PFU/ml
- virucidal efficacy (HSV-1 titer) (HSV-1 McKrae Strain [1]; Experiment 4 (Table 9), 24 h PI, Run 2, 1 mg/ml): 0 PFU/ml
- virucidal efficacy (HSV-1 titer) (HSV-1 McKrae Strain [1]; Experiment 4 (Table 9), 24 h PI, Run 2, 5 mg/ml): 0 PFU/ml
- effective virucidal concentration IC50 (HSV-1 McKrae Strain [1]; Experiment 4 (Table 11)): 500 µg/mL
- effective virucidal concentration IC90 (HSV-1 McKrae Strain [1]; Experiment 4 (Table 11)): > 1000 µg/mL
- virucidal efficacy (HSV-1 titer) (HSV-1 McKrae Strain [1]; Experiment 6 (Table 16), 24 h PI, 0.1 mg/ml): 10^2 PFU/ml
- virucidal efficacy (HSV-1 titer) (HSV-1 McKrae Strain [1]; Experiment 6 (Table 16), 24 h PI, 0.5 mg/ml): 0 PFU/ml
- virucidal efficacy (HSV-1 titer) (HSV-1 McKrae Strain [1]; Experiment 6 (Table 16), 24 h PI, 1 mg/ml): 0 PFU/ml
- effective virucidal concentration IC50 (HSV-1 McKrae Strain [1]; Experiment 6 (Table 17)): 100 µg/mL
- efficacy in virucidal assay (comment) (HSV-1 McKrae Strain [1]; Experiment 6 comment, reduction in toxicity resulted in it): reduction in efficacy
- toxicity IC50, cell proliferation (HFF cells [3]): 25.0 MCG/ML
- antiviral efficacy (HSV-1 titer) (HSV-1 McKrae Strain [4]; 0.001 mg/ml): 10^5 PFU/ml
- antiviral efficacy (HSV-1 titer) (HSV-1 McKrae Strain [4]; 0.5 mg/ml): 10^2 PFU/ml
- antiviral efficacy (HSV-1 titer) (HSV-1 McKrae Strain [4]; 1 mg/ml): 0 PFU/ml
- effective virucidal concentration IC50 (HSV-1 McKrae Strain [4]; Experiment 7 (Table 19), HSV-1): 500 µg/mL
